Laboratory results published in patent US8309768B2, “FTY720-derived anticancer agents” (The Ohio State University Research Foundation, priority 2010, dated 2012).

How the values were obtained:
[1] = tested on: primary CLL cells; experiment: Cytotoxicity in primary CLL cells (Annexin V / propidium iodide flow cytometry); type: cell-based; details: primary CLL cells, 24 hrs, OSU-2S at 8 μM
Procedure: Antitumor and other effects of OSU-2S were also evaluated in Chronic Lymphoid Leukemia cells. OSU-2S cytotoxicity in primary CLL cells is measured at 24 hrs by staining for Annexin V and Propidium Iodide using Flow cytometer. The number of live cells (stained negative for both the stains) were normalized to untreated control. Fludarabine metabolite (2-Fara) was used as a control.
The effect of OSU-2S was evaluated in 3 different CLL cell lines (WROTH<THOU, and RAHUE) over a 24 hour period, as shown in FIG. 9. Time dependent OSU-2S cytotoxicity in primary CLL cells was measured by treating the cells with OSU-2S (8 μM) for indicated period of time and washed and cultured in the fresh media for 24 hr. The number of live cells stained negative for Annexin V and Propidium Iodide were measured at 24 hrs by using Flowcytometer and normalized to untreated control.
CD37 activation and OSU-2S produced enhanced cytotoxicity in CLL cells, as detected by flow cytometer at 24 hr. in CLL cells treated with CD37 antibody and cross linker or OSU-2S 8 μM or with both are stained for Annexin V and propidium iodide at 24 hr.

[2] = tested on: CLL cells; experiment: Western blot analysis in CLL cells (PARP, caspase 3, caspase 9); type: cell-based
Excerpt: Western blot analysis as carried out to further observe the effects of OSU-2S in CLL cells. […] OSU-2S in CLL activates caspase, as evidenced by cleavage of poly (ADP-ribose) polymerase (PARP). Jurkat cell with or without UV irradiation were included as controls. […] OSU-2S was also shown to activate caspase 3 in CLL cells. […] Finally, OSU-2S activates caspase 9 in CLL.

[3] = biological target: T1, S1P1 receptor-overexpressing Huh7 cells (Homo sapiens, UniProt P21453); experiment: Immunocytochemical analysis of S1P1 receptor internalization; type: cell-based; details: immunocytochemistry
T1 construct: expressed in transfected cells
T1 sequence (P21453 whole entry): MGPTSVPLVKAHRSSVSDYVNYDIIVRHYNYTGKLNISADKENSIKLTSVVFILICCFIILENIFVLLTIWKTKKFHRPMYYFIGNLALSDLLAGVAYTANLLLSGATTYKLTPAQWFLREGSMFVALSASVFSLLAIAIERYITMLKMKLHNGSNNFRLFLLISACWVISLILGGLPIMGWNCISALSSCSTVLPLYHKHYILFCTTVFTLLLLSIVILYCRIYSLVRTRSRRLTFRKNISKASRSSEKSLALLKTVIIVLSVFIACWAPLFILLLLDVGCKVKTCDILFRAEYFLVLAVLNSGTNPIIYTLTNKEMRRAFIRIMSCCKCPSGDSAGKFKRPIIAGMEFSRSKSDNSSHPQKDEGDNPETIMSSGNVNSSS
Procedure: Immunocytochemistry. Immunocytochemical analysis of S1P1 internalization and PKCδ nuclear translocation were performed as described. […] Briefly, treated cells were washed, fixed with 4% paraformaldehyde, and permeabilized with 0.1% Triton X-100. After blocking with 2% FBS, cells were incubated with rabbit anti-S1P1 or rabbit anti-PKCδ antibodies (1:200 dilution, 4° C., 24 h), followed by Alexa Fluor 488-conjugated goat anti-rabbit IgG (room temperature, 1 h). Nuclei were counterstained with a 4,6-diamidino-2-phenylindole (DAPI)-containing mounting medium (Vector Laboratories, Burlingame, Calif.).

[4] = tested on: lymphocytes in peripheral blood; experiment: In vivo evaluation of T-lymphocyte homing; details: CD2F1 mice, i.p., 6 h
Procedure: In vivo evaluation of T-lymphocyte homing. […] Six hours later, animals were sacrificed, and peripheral blood mononuclear cells were prepared as described. Dragun et al., Kidney Int 65, 1076-1083 (2004). Cells were stained with FITC-labeled rat anti-mouse CD3 molecular complex and PE-labeled rat anti-mouse CD45RA (4° C., in darkness, 30 min), and analyzed by flow cytometry.

[5] = tested on: Huh7 cells; experiment: MTT cell viability assay, Huh7; type: cell-based
Procedure: (§1) Cell lines, culture and reagents. The HCC cell lines Hep3B, PLC5 and Huh7, as well as primary nonmalignant human hepatocytes were used in this study. Cancer cells were cultured in Dulbecco's Modified Eagle's medium (DMEM) supplemented with 10% fetal bovine serum (FBS). Hepatocytes were maintained in defined Hepatocyte Culture Medium. […] Various polyclonal and monoclonal antibodies were used for western blotting, immunocytochemical, and flow cytometric analyses.
(§2) Cell viability assay. Cell viability was assessed by 3-(4,5-dimethylthiazol-2-yl)-2,5-diphenyl-2H-tetrazolium bromide (MTT) assays in six replicates. Cells were seeded (4,000 cells/well; 96-well plate) for 24 h and treated with test agents in 5% FBS-supplemented DMEM. After treatment, cells were incubated in medium containing 0.5 mg/ml MTT (37° C., 2 h). Reduced MTT was dissolved in DMSO (200 μL/well) and absorbances measured at 570 nm.

[6] = tested on: Hep3B cells; experiment: MTT cell viability assay, Hep3B; type: cell-based; details: Homo sapiens, 24 h of treatment
Procedure: as §1, §2

[7] = tested on: PLC5 cells; experiment: MTT cell viability assay, PLC5; type: cell-based; details: 24 h of treatment
Procedure: as §1, §2

[8] = tested on: normal human hepatocytes; experiment: MTT cell viability assay, normal hepatocytes; type: cell-based; details: 24 h
Procedure: as §1, §2

[9] = biological target: T1, S1P1 receptor-overexpressing Huh7 cells; experiment: Cell viability in stable S1P1 receptor transfectants; type: cell-based; details: two stable S1P1 clones vs wild-type Huh7
Procedure: as §2
Overexpression of S1P1 Receptors. Huh7 or Hep3B cells were transfected with plasmids encoding S1PR1, Flag-tagged GST-π or hemagglutinin (HA)-tagged, CA-Akt. The corresponding empty vectors were used as controls. Stable clones were selected over 3 weeks by geneticin, and the expression of cloned proteins was confirmed by Western blotting.

[10] = tested on: PTEN, p53, Mcl-1 in Huh7 cells; experiment: Western blot of signaling markers in drug-treated Huh7 cells; type: cell-based; details: 24 h
Procedure: Immunoblotting. Immunoblotting of biomarkers in cell lysates and tumor tissue homogenates was carried out according to a published procedure. Hung et al., Cancer Res., 68, 1204-1212 (2008).

[11] = tested on: subcutaneous Hep3B tumors; experiment: Ectopic (subcutaneous) Hep3B xenograft tumor model; type: in vivo, athymic nude mice
Procedure: (§3) Xenograft tumor models. Ectopic tumors were established in athymic nude mice by subcutaneous injection of 1×10^6 Hep3B cells in a total volume of 0.1 ml of serum-free medium containing 50% Matrigel. Mice with established tumors were randomized to five groups (n=8) that received daily i.p. injections of OSU-2S or FTY720 at 5 or 10 mg/kg, or the vehicle. Tumor burdens were determined weekly using calipers (volume=width^2×length×0.52). Body weights were measured weekly. At the study endpoint, tumors were harvested, snap-frozen and stored at −80° C. for biomarker analysis. Blood and tissues were collected for evaluation of complete blood counts, serum chemistry and histopathology.

[12] = tested on: orthotopic Hep3B-luc tumors; experiment: Orthotopic Hep3B-luc xenograft tumor model; type: in vivo, athymic nude mice; parameters: dose or concentration left out as unconfirmed; details: by three weeks
Excerpt: Orthotopic tumors were established by direct intrahepatic injection of luciferase-expressing Hep3B (Hep3B-luc) cells as described. Omar et al., Mol Pharmacol, 76, 957-968 (2009). The establishment and growth of tumors were monitored by bioluminescent imaging using the IVIS™ imaging system (Xenogen, Alameda, Calif.). […] All animal use described in this manuscript was done in accordance with protocols approved by The Ohio State University Institutional Animal Care and Use Committee.

[13] = Toxicity evaluation in tumor-bearing mice (body weight, blood counts, histopathology); type: in vivo, athymic nude mice; details: for mice with abdominal adhesions with varying amounts of peritonitis: of six mice per group examined histologically
Procedure: as §3
Orthotopic tumors were established by direct intrahepatic injection of luciferase-expressing Hep3B (Hep3B-luc) cells as described. Omar et al., Mol Pharmacol, 76, 957-968 (2009). The establishment and growth of tumors were monitored by bioluminescent imaging using the IVIS™ imaging system (Xenogen, Alameda, Calif.). Two weeks after tumor cell injection, animals with established tumors were randomized to three groups (n=3) that received daily i.p. injections of FTY720 or OSU-2S at 5 mg/kg, or vehicle for 42 days and were imaged weekly. All animal use described in this manuscript was done in accordance with protocols approved by The Ohio State University Institutional Animal Care and Use Committee.

[14] = biological target: T2, PP2A (Serine/Threonine Phosphatase 2A) (Homo sapiens, UniProt P67775); experiment: PP2A functional enzymatic assay (malachite green) in primary CLL cells; type: cell-based; details: 24 hrs, OSU-2S 8 μM, untreated about 0.07
T2 construct: endogenous in cells; host or cells: primary CLL cells; Ramos cells
T2 sequence (P67775 whole entry): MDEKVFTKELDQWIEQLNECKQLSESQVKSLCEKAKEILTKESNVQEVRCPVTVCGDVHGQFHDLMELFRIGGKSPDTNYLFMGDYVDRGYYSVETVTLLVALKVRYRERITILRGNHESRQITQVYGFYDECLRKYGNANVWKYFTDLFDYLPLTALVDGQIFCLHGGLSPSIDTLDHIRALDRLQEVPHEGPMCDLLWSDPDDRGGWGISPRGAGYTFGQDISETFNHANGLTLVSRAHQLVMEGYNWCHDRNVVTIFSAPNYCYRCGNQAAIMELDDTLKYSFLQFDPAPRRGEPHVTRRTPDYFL
Procedure: The ability of OSU-2S to induce PP2A (Serine/Threonine Phosphatase 2A) activity in primary CLL cells was measured at 24 hrs by a functional enzymatic assay. Lysates made from OSU-2S 8 μM treated cells are used to immunoprecipitate PP2Ac which was then used as an enzyme to cleave the specific phosphor-peptide substrate in the functional assay. The cleaved free phosphates were measured by adding malachite green detection solutions and measuring the absorbance at A650 nm. Ramos cells were also included, and FTY720 was used as the control.

[15] = tested on: SphK2 siRNA-transfected Huh7 cells; experiment: Cell viability after siRNA-mediated knockdown of SphK2; type: cell-based; details: SphK2 siRNA vs scrambled
Procedure: as §2
Small interfering (si)RNA- or short hairpin (sh)RNA-mediated knockdown. PLC5 and Huh7 cells were transfected with the following siRNA duplexes or shRNA plasmids according to the manufacturer's protocol for the knockdown of target genes: siRNA: glutathione S-transferase (GST)-π and sphingosine kinase 2 (SphK2); shRNA constructs: pKD-PKCδ-v2. Stable clones were isolated from Huh7 cells transfected with shRNA plasmids were further subjected to stable clone isolation by geneticin. Immunoblotting was performed to confirm the knockdowns.

Nc1nc(F)nc2c1ncn2[C@@H]1O[C@H](CO)[C@@H](O)[C@@H]1O [2-Fara, reference compound]
growth (live cells normalized to untreated control) [1]: 100% | caspase 3 activation ([2]; 24 and 48 hours, products at about 16-18 kD): caspase 3 cleaved products | caspase 9 activation ([2]; products at about 30-34 kD): caspase 9 cleaved products

CCCCCCCCc1ccc(CCC(N)(CO)CO)cc1 [FTY720]
S1P1 receptor internalization and clustering in the cytoplasm [3]: profound effect | drop in the number of T lymphocytes in peripheral blood ([4]; 1 mg/kg): ≥ 75% | changes in circulating B lymphocytes [4]: no comparable changes | IC50 ([5]; Homo sapiens, Huh-7, 24 h of treatment, MTT): 4.8 µM | IC50 [6]: 4.2 µM | IC50 [7]: 6.2 µM | sensitivity of normal human hepatocytes relative to malignant cells [8]: resistant | effect of S1P1 receptor overexpression on antiproliferative activity [9]: partially protected | effect on expression levels of PTEN, p53, or Mcl-1 [10]: neither OSU-2S nor FTY720 had an appreciable effect | ectopic Hep3B tumor growth vs vehicle control ([11]; 5 mg/kg, i.p. once daily, P<0.001): completely suppressed | dose dependency of tumor-suppressive response ([11]; 5 and 10 mg/kg i.p. daily): no dose dependency | intratumoral biomarkers of drug activity ([11]; Hep3B tumor tissue homogenates, Western blot): PKCδ and caspase-3 were activated | orthotopic tumor burden (bioluminescence) [12]: suppressed mean tumor burden to the original level | mice with abdominal adhesions with varying amounts of peritonitis ([13]; 5 mg/kg): three | mice with abdominal adhesions with varying amounts of peritonitis ([13]; 10 mg/kg): all | lymphocyte levels ([13]; ectopic tumor-bearing mice at study endpoint): minimal to mild lymphopenia | overt toxicity and body weight ([13]; ectopic tumor-bearing mice, daily i.p. 5 or 10 mg/kg): no overt signs of toxicity and no loss of body weight | tolerability (stable body weights) ([13]; orthotopic tumor-bearing mice, daily i.p., 42 days): well tolerated | PP2A activity, absorbance at A650 nm [14]: about 0.20 | effect of SphK2 knockdown on antiproliferative activity (sensitizing effect) [15]: significantly increased

CCCCCCCCc1ccc(CCC(N)(CO)COP(=O)(O)O)cc1 (stereo not drawn) [p-FTY720]
suppression of HCC cell viability by phosphate derivatives ([5]; 24 h, MTT (FIG. 6A)): lacks in vitro efficacy
